Data published in patent US9084766B2, “Compounds and compositions for targeting cancer stem cells” (Boston Biomedical, Inc., priority 2010, dated 2015).
Several values for one entry are separate records, joined by “and”; a condition that tells them apart may be missing. Identical values can stand only once. Entries after “also recorded” stand apart in the source; their conditions may differ. Like-named read-outs stand apart in the source and are kept apart here.

Columns and labels:
[1] = system: cancer cells and normal cells; settings: Hirai et al. 1999; Takano et al. 2009; previous studies; cited from earlier work
[2] = Toxicity / body weight in tumor-bearing mice; assay type: in vivo
Description: All regimens were administered daily (qd). Body weights were evaluated periodically during treatment. Each point represents the mean±SEM of eight tumors. […] All regimens were administered daily (qd). Body weights were evaluated periodically during treatment. Each point represents the mean±SEM of eight tumors.
Daily examinations into the health status of each animal were also conducted. Body weights were checked every three days. Food and water was supplied daily according to the animal husbandry procedures of the facility. Treatment producing>20% lethality and or >20% net body weight loss were considered toxic. Results are expressed as mean tumor volume (mm^3)±SE. P Values<0.05 are considered to be statistically relevant.

[3] = Phase I clinical trial: plasma pharmacokinetics; assay type: in vivo, human; parameters: AUC0-24 hrs: concentration or dose not given beside the values; settings: for AUC0-24 hrs: in µM·h
Description: A favorable PK profile with oral bid dosing was also observed. The plasma concentration reached several folds over efficacious concentration (in vitro IC50).
In yet another suitable dosing regimen, Compound 1 is administered with food which delays the Tmax (Table 13).

[4] = Compound concentration in patient urine; assay type: in vivo, human
[5] = system: CD34+ BM Erythroid; test: IC50 versus treatment time, CD34+ BM Erythroid; assay type: cell-based; settings: normal cells CD34+ BM Erythroid, treatment time 12-24 h
Description: The studies described herein discovered counter-intuitively that cancer cells and cancer stem cells requires much shorter exposure than normal cells to be killed by Compound 1. Normal cells can tolerate up to 24 hours of exposure to Compound 1. Furthermore, the studies here discovered that normal cells can recover after a short period of no-drug exposure, while cancer cells cannot recover once they are exposed to a certain concentration of the Compound 1 for at least 2 hours. Based on these studies, a special pharmacokinetic exposure [termed selective pharmacokinetic profile (SPP), or preferred pharmacokinetic profile (PPP), which is used interchangeably in this publication] was designed for Compound 1 using the data shown below in Table 14 for achieving selective antitumor activity in patients (FIG. 24).

In the case of `CC(=O)c1cc2c(o1)C(=O)c1ccccc1C2=O` [Compound 1, 2-acetyl-4H,9H-naphtho[2,3-b]furan-4,9-dione], the “toxicity to cancer cells and normal cells” value [1] is given as “equally toxic to normal and cancer cells; also recorded: equally toxic to cancer cells and normal cells”, the “mice died during the treatment” value ([2]; about 90% pure, FaDu experiment (upper panel)) is given as 4 mice and the “mice died during the treatment” value ([2]; about 90% pure, MDA-231 experiment (lower panel)) is given as 3 mice. The toxicity ([2]; about 90% pure, in GELUCIRE, po qd, FaDu or MDA-231 bearing mice (FIG. 13)) was “Significant toxicity”, the toxicity ([2]; composition of particle size less than 5 micron, mice) was “no observed toxicity” and the tolerability / toxicity ([2]; higher purity (about 95% or greater), po qd, FaDu or MDA-231 bearing mice (FIG. 14)) was “well-tolerated and showed no signs of toxicity”. For the same molecule, the clearance from blood ([3]; 20 mg QD (FIG. 21)) was “rapidly cleared from the blood”, the “time plasma concentration sustained at at least 1.5 μM” value ([3]; 320 mg/day dose level) was “over 8 hours” and the plasma concentration sustained ([3]; 320 mg/day dose level, for over 8 hours) was “at least 1.5 μM”. The Cmax ([3]; Fasting) was 2550 nM, the AUC0-24 hrs ([3]; Fasting) was 20.72 and the “pharmacokinetics (linearity)” value ([3]; doses through about 1000 mg/day) was “apparent linear pharmacokinetics”. It also gave an AUC(0-t) ([3]; human, plasma, oral, 80 mg, total daily dose 80 mg, BID dosing, read-out: AUC0-24) of 7.95 µM·h, an AUC(0-t) ([3]; human, plasma, oral, 160 mg, total daily dose 160 mg, BID dosing, read-out: AUC0-24) of 9.52 µM·h and an AUC(0-t) ([3]; human, plasma, oral, 320 mg, total daily dose 320 mg, BID dosing, read-out: AUC0-24) of 29.8 µM·h. It also gave an AUC(0-t) ([3]; human, plasma, oral, 400 mg, total daily dose 400 mg, BID dosing, read-out: AUC0-24) of 53.6 µM·h, an AUC(0-t) ([3]; human, plasma, oral, 600 mg, total daily dose 600 mg, BID dosing, read-out: AUC0-24) of 27.3 µM·h and an AUC(0-t) ([3]; human, plasma, oral, 800 mg, total daily dose 800 mg, BID dosing, read-out: AUC0-24) of 26.4 µM·h. It also gave an AUC(0-t) ([3]; human, plasma, oral, 1000 mg, total daily dose 1000 mg, BID dosing, read-out: AUC0-24) of 42.6 µM·h, an AUC(0-t) ([3]; human, plasma, oral, 1400 mg, total daily dose 1400 mg, BID dosing, read-out: AUC0-24) of 28.4 µM·h and an AUC(0-t) ([3]; human, plasma, oral, 2000 mg, total daily dose 2000 mg, BID dosing, read-out: AUC0-24) of 39.1 µM·h. It also gave a Cmax ([3]; human, plasma, oral, Fasting) of 2010 nM, an AUC(0-t) ([3]; human, plasma, oral, Fasting, read-out: AUC0-24 hrs) of 20.1 µM·h and a Tmax ([3]; human, plasma, oral, patient 20, Fasting) of 2 h. The Tmax ([3]; human, plasma, oral, patient 20, With Food) was 8 h, the Tmax ([3]; human, plasma, oral, patient 20, With Milk) was 2 h and the Tmax ([3]; human, plasma, oral, patient 21, Fasting) was 6 h. The Tmax ([3]; human, plasma, oral, patient 21, With Food) was 6 h, the Tmax ([3]; human, plasma, oral, patient 21, With Milk) was 6 h and the Tmax ([3]; human, plasma, oral, patient 22, Fasting) was 8 h. For the same molecule, the Tmax ([3]; human, plasma, oral, patient 22, With Food) was 10 h, the Tmax ([3]; human, plasma, oral, patient 22, With Milk) was 8 h and the Tmax ([3]; human, plasma, oral, patient 24, With Food) was 10 h. For the same molecule, the Tmax ([3]; human, plasma, oral, patient 24, With Milk) was 6.3 h, the Tmax ([3]; human, plasma, oral, patient 27, With Food) was 6 h and the Tmax ([3]; human, plasma, oral, patient 27, With Milk) was 0.5 h. It also gave a Tmax ([3]; human, plasma, oral, patient 28, With Food) of 10 h, a Tmax ([3]; human, plasma, oral, patient 28, With Milk) of 6 h and a Cmax ([3]; human, plasma, oral, with Milk) of 3050 nM. The AUC(0-t) ([3]; human, plasma, oral, with Milk, read-out: AUC0-24 hrs) was 31.4 µM·h, the drug accumulation ([3]; repeated daily dosing every 28 days, doses through about 1000 mg/day) was “no evidence of drug accumulation” and the Cmax ([3]; with Milk) was 2890 nM. The “AUC0-24 hrs Fold Change” value ([3]; with Milk versus Fasting) was 1.56 and 1.55, the “Cmax Fold Change” value ([3]; with Milk versus Fasting) was 1.52 and 1.13 and the AUC0-24 hrs ([3]; with Milk) was 32.16. For the same molecule, the “BBI608 concentration in patient urine” value ([4]; patient 7, total daily dose 320 mg, 120-240 min post dose) was 4.3 µM, the “BBI608 concentration in patient urine” value ([4]; patient 7, total daily dose 320 mg, 360-480 min post dose) was 23.1 µM and the “BBI608 concentration in patient urine” value ([4]; patient 8, total daily dose 320 mg, 120-240 min post dose) was 7.9 µM. The “BBI608 concentration in patient urine” value ([4]; patient 8, total daily dose 320 mg, 360-480 min post dose) was 1.8 µM, the “BBI608 concentration in patient urine” value ([4]; patient 9, total daily dose 320 mg, 120-240 min post dose) was 8.9 µM and the “BBI608 concentration in patient urine” value ([4]; patient 9, total daily dose 320 mg, 360-480 min post dose) was 23.6 µM. For the same molecule, the “BBI608 concentration in patient urine” value ([4]; patient 10, total daily dose 320 mg, 120-240 min post dose) was 22.7 µM, the “BBI608 concentration in patient urine” value ([4]; patient 10, total daily dose 320 mg, 360-480 min post dose) was 26.2 µM and the “BBI608 concentration in patient urine” value ([4]; patient 11, total daily dose 320 mg, 120-240 min post dose) was 1.8 µM. The “BBI608 concentration in patient urine” value ([4]; patient 11, total daily dose 320 mg, 360-480 min post dose) was 4.5 µM, the “BBI608 concentration in patient urine” value ([4]; patient 12, total daily dose 400 mg, 120-240 min post dose) was 4.11 µM and the “BBI608 concentration in patient urine” value ([4]; patient 12, total daily dose 400 mg, 360-480 min post dose) was 3.86 µM. The “BBI608 concentration in patient urine” value ([4]; patient 14, total daily dose 400 mg, 120-240 min post dose) was 1.42 µM, the “BBI608 concentration in patient urine” value ([4]; patient 14, total daily dose 400 mg, 360-480 min post dose) was 5 µM and the “BBI608 concentration in patient urine” value ([4]; patient 15, total daily dose 600 mg, 120-240 min post dose) was 3.1 µM. For the same molecule, the “BBI608 concentration in patient urine” value ([4]; patient 15, total daily dose 600 mg, 360-480 min post dose) was 10.65 µM, the “BBI608 concentration in patient urine” value ([4]; patient 17, total daily dose 600 mg, 120-240 min post dose) was 1.66 µM and the “BBI608 concentration in patient urine” value ([4]; patient 17, total daily dose 600 mg, 360-480 min post dose) was 45.35 µM. For the same molecule, the “BBI608 concentration in patient urine” value ([4]; patient 18, total daily dose 600 mg, 120-240 min post dose) was 2.41 µM, the “BBI608 concentration in patient urine” value ([4]; patient 18, total daily dose 600 mg, 360-480 min post dose) was 6.3 µM and the “BBI608 concentration in patient urine” value ([4]; patient 20, total daily dose 800 mg, 120-240 min post dose) was 6.17 µM. For the same molecule, the “BBI608 concentration in patient urine” value ([4]; patient 20, total daily dose 800 mg, 360-480 min post dose) was 118.25 µM, the “BBI608 concentration in patient urine” value ([4]; patient 21, total daily dose 800 mg, 120-240 min post dose) was 0.42 µM and the “BBI608 concentration in patient urine” value ([4]; patient 21, total daily dose 800 mg, 360-480 min post dose) was 7.42 µM. The “BBI608 concentration in patient urine” value ([4]; patient 23, total daily dose 800 mg, 120-240 min post dose) was 2.51 µM, the “BBI608 concentration in patient urine” value ([4]; patient 23, total daily dose 800 mg, 360-480 min post dose) was 11.97 µM and the IC50 [5] was over 30 µM.
